Experimental data taken from patent publication US20040248844A1, “Method for the treatment or prevention of Flavivirus infections using nucleoside analogues” (priority 2000, published 2004).

Target: T1, HCV RNA-dependent RNA polymerase (NS5B protein) (Hepatitis C virus genotype 1b, UniProt P26663)
T1 construct: The cDNA encoding the entire NS5B protein of HCV-Bk strain, genotype 1b; initiator Met (ATG added before the NS5B coding region) (N); made in house; host or cells: Sf9 insect cells, recombinant baculovirus (pBlueBacII, BacNS5B)
Assay: HCV RNA-dependent RNA polymerase assay (in vitro RdRp assay, heteropolymeric RNA template)
Format: biochemical, HCV-Bk strain
Details: for IC50: purified recombinant NS5B 200 ng, competing NTP at twice Km, other NTPs 100 μM, 2 h at 22° C., triphosphate form tested; for measured Kms for the four substrates: natural NTP substrates of purified NS5B in the RdRp assay
Protocol: Compounds were evaluated using an in vitro polymerase assay containing purified recombinant HCV RNA-dependent RNA polymerase (NS5B protein). HCV NS5B was expressed in insect cells using a recombinant baculovirus as vector. The experimental procedures used for the cloning, expression and purification of the HCV NS5B protein are described below. Following are details of the RNA-dependent RNA polymerase assays used to test the compounds.
The cDNA encoding the entire NS5B protein of HCV-Bk strain, genotype 1b, was amplified by PCR using a plasmid containing a cDNA version of the full-length HCV genome as template. The oligonucleotides used to amplify this HCV region were designed to introduce a NheI site followed by an ATG at the 5′ end of the NS5B coding region as well as a BamHI site at the 3′end immediately downstream of the translation stop codon. The amplified sequence, of 1.8 kb, was digested with NheI and BamHI and ligated to a predigested pBlueBacII plasmid (Invitrogen). The resulting recombinant plasmid was designated pBac/NS5B. Sf9 cells were co-transfected with 3 μg of pBac/NS5B, together with 1 μg of linearized baculovirus DNA (Invitrogen), as described in the manufacturer's protocol. Following two rounds of plaque purification, an NS5B-recombinant baculovirus, BacNS5B, was isolated. The presence of the recombinant NS5B protein was determined by western blot analysis (Harlow and Lane, 1988) of BacNS5B-infected Sf9 cells, using a HCV NS5B specific rabbit polyclonal antiserum (anti-NS5B). Infections of Sf9 cells with this plaque purified virus were performed in one-liter spinner flasks at a cell density of 1.2×10^6 cells/ml and a multiplicity of infection of 5.
Sf9 cells were infected as described above. Sixty hours post-infection, cells were harvested then washed twice with phosphate buffer saline (PBS). Total proteins were solubilized as described in Lohmann et al. […] with some modifications. In brief, proteins were extracted in three steps, S1, S2, S3, using lysis buffers (LB) I, LB II and LB III (Lohmann et al, 1997). The composition of LBII was modified to contain 0.1% triton X-100 and 150 mM NaCl to reduce the amount of solubilized NS5B protein at this step. In addition, sonication of cell extracts was avoided throughout the protocol to preserve the integrity of the protein structure.
Soluble NS5B protein in the S3 fraction was diluted to lower the NaCl concentration to 300 mM, then it incubated batchwise with DEAE sepharose beads (Amersham-Pharmacia) for 2 hrs at […], as described by Behrens et al. (1989). Unbound material was cleared by centrifugation for 15 min at 4° C., at 25 000 rpm using a SW41 rotor (Beckman). The supernatant was further diluted to lower the NaCl concentration to 200 mM and subsequently loaded, with a flow rate of 1 ml/min, on a 5 ml HiTrap® heparin column (Amersham-Pharmacia) connected to an FPLC® system (Amersham-Pharmacia). Bound proteins were eluted in 1 ml fractions, using a continuous NaCl gradient of 0.2 to 1 M, over a 25 ml volume. NS5B-containing fractions were identified by sodium dodecyl sulfate polyacrylamide gel electrophoresis (SDS-PAGE), followed by western blotting using the anti-NS5B antiserum at a dilution of 1:2000. Positive fractions were pooled and the elution buffer was exchanged against a 50 mM NaPO4 pH 7.0, 20% glycerol, 0.5% triton X-100 and 10 mM DTT, using a PD-10 column (Amersham-Pharmacia). The sample was then loaded onto a 1 ml HiTrap® SP column (Amersham-Pharmacia), with a flow rate of 0.1 ml/min. Bound proteins were eluted using a continuous 0 to 1 M NaCl gradient over a 15 ml volume. Eluted fractions were analyzed by SDS-PAGE and western blotting. Alternatively, proteins were visualized, following SDS-PAGE, by silver staining using the Silver Stain Plus kit (BiORad) as described by the manufacturer.
RdRp assays were conducted using in vitro transcribed heteropolymeric RNA templates. […]

T1 sequence (P26663 2420-3010): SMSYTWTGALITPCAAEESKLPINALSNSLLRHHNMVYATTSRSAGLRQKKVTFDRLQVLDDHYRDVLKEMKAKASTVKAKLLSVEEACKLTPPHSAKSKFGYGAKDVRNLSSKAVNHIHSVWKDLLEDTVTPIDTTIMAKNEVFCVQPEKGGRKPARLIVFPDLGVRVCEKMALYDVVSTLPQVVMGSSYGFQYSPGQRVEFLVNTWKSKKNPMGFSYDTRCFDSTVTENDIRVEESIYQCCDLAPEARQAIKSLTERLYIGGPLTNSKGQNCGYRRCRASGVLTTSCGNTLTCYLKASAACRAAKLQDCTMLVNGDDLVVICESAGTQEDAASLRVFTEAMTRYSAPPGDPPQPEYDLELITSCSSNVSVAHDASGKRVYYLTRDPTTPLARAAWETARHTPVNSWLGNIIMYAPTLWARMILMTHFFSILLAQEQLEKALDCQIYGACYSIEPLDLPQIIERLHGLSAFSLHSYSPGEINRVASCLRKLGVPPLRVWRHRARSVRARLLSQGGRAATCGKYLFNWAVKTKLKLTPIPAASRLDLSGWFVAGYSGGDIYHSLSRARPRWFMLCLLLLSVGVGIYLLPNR

Compound	IC50	measured Kms for the four substrates
6-Chloro- 3′-deoxyguanosine- 5′triphosphate [COMPOUND#32]	6800 nM	
Nc1ncnc2c1ncn2[C@@H]1O[C@H](COP(=O)(O)OP(=O)(O)OP(=O)(O)O)[C@@H](O)[C@H]1O [ATP, reference compound]		18 µM
Nc1ccn([C@@H]2O[C@H](COP(=O)(O)OP(=O)(O)OP(=O)(O)O)C[C@H]2O)c(=O)n1 [COMPOUND#2, 3′-deoxycytidine-5′triphosphate]	36 nM	
Nc1nc(=O)n([C@@H]2O[C@H](COP(=O)(O)OP(=O)(O)OP(=O)(O)O)C[C@H]2O)cc1F [COMPOUND#4, 5-Fluoro-3′-deoxycytidine-5′triphosphate]	300 nM	
O=c1ccn([C@@H]2O[C@H](COP(=O)(O)OP(=O)(O)OP(=O)(O)O)C[C@H]2O)c(=O)[nH]1 [COMPOUND#6, 3′-deoxyuridine-5′triphosphate]	260 nM	
O=c1[nH]c(=O)n([C@@H]2O[C@H](COP(=O)(O)OP(=O)(O)OP(=O)(O)O)C[C@H]2O)cc1F [COMPOUND#8, 5-Fluoro-3′-deoxyuridine-5′triphosphate]	1980 nM	
Cc1cn([C@H]2CC[C@@H](COP(=O)(O)OP(=O)(O)OP(=O)(O)O)O2)c(=O)[nH]c1=O [COMPOUND#10, 3′-deoxythymidine-5′triphosphate]	6400 nM	
Nc1nc2c(ncn2[C@@H]2O[C@H](COP(=O)(O)OP(=O)(O)OP(=O)(O)O)C[C@H]2O)c(=O)[nH]1 [COMPOUND#12, 3′-deoxyguanosine-5′triphosphate]	48 nM	
CC(=O)Nc1nc2c(ncn2[C@@H]2O[C@H](COP(=O)(O)OP(=O)(O)OP(=O)(O)O)C[C@H]2O)c(=O)[nH]1 [COMPOUND#14, 2-N-acetyl-3′-deoxyguanosine-5′triphosphate]	3100 nM	
Cc1cn([C@@H]2O[C@H](COP(=O)(O)OP(=O)(O)OP(=O)(O)O)C[C@H]2O)c(=O)nc1N [COMPOUND#16, 5-Methyl-3′-deoxycytidine-5′triphosphate]	360 nM	
Nc1nc(=O)n([C@@H]2O[C@H](COP(=O)(O)OP(=O)(O)OP(=O)(O)O)C[C@H]2O)cc1I [COMPOUND#18, 5-Iodo-3′-deoxycytidine-5′triphosphate]	6880 nM	
Nc1nc(=O)n([C@@H]2O[C@H](COP(=O)(O)OP(=O)(O)OP(=O)(O)O)C[C@H]2O)cc1Cl [COMPOUND#20, 5- = Chloro-3′-deoxycytidine-5′triphosphate]	180 nM	
Nc1nc(O)c2ncn([C@@H]3O[C@H](COP(=O)(O)OP(=O)(O)OP(=O)(O)O)[C@@H](F)[C@H]3O)c2n1 [COMPOUND#22, 3′-fluoro-3′-deoxyguanosine-5′triphosphate]	120 nM	
Nc1ccn([C@@H]2O[C@H](COP(=O)(O)OP(=O)(O)OP(=O)(O)O)[C@@H](F)[C@H]2O)c(=O)n1 [COMPOUND#24, 3′-fluoro-3′-deoxycytidine-5′triphosphate]	55 nM	
O=c1[nH]c(=O)n([C@@H]2O[C@H](COP(=O)(O)OP(=O)(O)OP(=O)(O)O)C[C@H]2O)cc1Cl [COMPOUND#28, 5-Chloro-3′-deoxyuridine-5′triphosphate]	2100 nM	
O=c1[nH]c(=O)n([C@@H]2O[C@H](COP(=O)(O)OP(=O)(O)OP(=O)(O)O)C[C@H]2O)cc1Br [COMPOUND#30, 5-Bromo-3′-deoxyuridine-5′triphosphate]	2900 nM	
[N-]=[N+]=N[C@H]1[C@@H](O)[C@H](n2ccc(N)nc2=O)O[C@@H]1COP(=O)(O)OP(=O)(O)OP(=O)(O)O [COMPOUND#54, 3′-azido-3′-deoxycytidine 5′triphosphate]	9000 nM	
Nc1nc(=O)n([C@@H]2O[C@H](COP(=O)(O)OP(=O)(O)OP(=O)(O)O)C[C@H]2O)cc1I [COMPQUND#26, 5- = Iodp-3′-deoxycytidine-5′triphosphate]	910 nM	
Nc1ccn([C@@H]2O[C@H](COP(=O)(O)OP(=O)(O)OP(=O)(O)O)[C@@H](O)[C@H]2O)c(=O)n1 [CTP, reference compound]		0.5 µM
Nc1nc2c(ncn2[C@@H]2O[C@H](COP(=O)(O)OP(=O)(O)OP(=O)(O)O)[C@@H](O)[C@H]2O)c(=O)[nH]1 [GTP, reference compound]		0.5 µM
O=c1ccn([C@@H]2O[C@H](COP(=O)(O)OP(=O)(O)OP(=O)(O)O)[C@@H](O)[C@H]2O)c(=O)[nH]1 [UTP, reference compound]		1.2 µM
